Data taken from paper PMC4286469 (Cancer research, 2014).
Blank lines part the entries; values can stand above or below the molecule they belong to. Where a SMILES comes first, the peptide text is derived from it. The star is where a group is joined. Cbz = O=C(OCc1ccccc1)*; CH2F = FC*

Columns and labels:
[1] = mouse, in vivo, po, 30 mg/kg
B16F0 tumors [2] = experiment: B16F0 tumors in immunodeficient NSG mice; assay type: in vivo; conditions: Fig. 4I
p53 [3] = experiment: p53 and p53 target levels in cultured p53^WT melanoma cells; assay type: cell-based, human; conditions: for accumulation of p53 and its transcriptional targets: p53^WT cells (SK-Mel5 and Hs294T), (−)-Nutlin-3 10µM, MLN8237 1µM, 5 days
[4] = test system: patient-derived metastatic melanoma tumors; conditions: independent of BRAF and NRAS mutational status; ref [7]; cited from earlier work
B16F0 tumors [5] = experiment: B16F0 tumors in syngeneic immunocompetent C57Bl/6 mice; assay type: in vivo
in vivo = conditions: C57Bl6, mouse, po, 30 mg/kg
SK-Mel5 melanoma cells = experiment: Viability/cytotoxicity of SK-Mel5 melanoma cells; assay type: cell-based, human; conditions: for viability of melanoma cells under continuous exposure: p53^WT SK-Mel5, (−)-Nutlin-3 10µM, MLN8237 1µM, 7 days, Fig. 1D, E
SK-Mel5 xenografts = experiment: Marker analysis of SK-Mel5 xenograft tumors; assay type: in vivo, BALB/C nu/Foxn1 athymic nude mice; conditions: for p53 induction/activation in tumors (Western blot): (−)-Nutlin-3 200mg/kg
[6] = test system: non-resectable melanoma tumors driven by BRAF^V600E; conditions: patients; ref [1]–[5]; cited from earlier work
SK-Mel5 cells = assay type: cell-based, human
cells with p53 knockout = experiment: Viability of cells with p53 knockout; assay type: cell-based; conditions: Fig. S2A
p53 [7] = experiment: p53 level and activity in p53^MUT SK-Mel28 cells; assay type: cell-based, human
[8] = Plasma and tumor pharmacokinetics in B16F0 melanoma-bearing C57Bl6 mice; conditions: 200 mg/kg oral

overall median MLN8237 AUC0–24hr, tumor tissue [1]: 37.4 µg·h/g
AUC(0-t) (in vivo): 42.7 µg·h/mL
Molecule: COc1cc(Nc2ncc3c(n2)-c2ccc(Cl)cc2C(c2c(F)cccc2OC)=NC3)ccc1C(=O)O [MLN8237]
clearance of necrotic areas in senescent tumors (B16F0 tumors [2]): abrogated
accumulation of p53 and its transcriptional targets (p53 [3]): induced p53 accumulation
patient-derived metastatic melanoma tumors with markedly slowed growth [4]: > 75%
tumor growth (B16F0 tumors [5]; (−)-Nutlin-3 200mg/kg twice daily, MLN8237 30mg/kg once a day, oral gavage): partially inhibited tumor growth
CCL5 levels in melanoma cells and fibroblasts sorted from tumors (qRT-PCR) (B16F0 tumors [5]; Fig. 5B): increased
tumor necrosis (H&E) (B16F0 tumors [5]; immunocompetent mice, Fig. 4G): striking absence of necrosis
viability of melanoma cells under continuous exposure (SK-Mel5 melanoma cells): mostly cytostatic response
p53 induction/activation in tumors (Western blot) (SK-Mel5 xenografts; MLN8237 30mg/kg daily): moderate induction of p53
AURKA activity (auto-phosphorylation) in tumor lysates (SK-Mel5 xenografts; MLN8237 30mg/kg daily): inhibited AURKA activity
tumor senescence (SA-β-Gal activity) and proliferation markers (SK-Mel5 xenografts; MLN8237 30mg/kg daily): inhibition of cancer cell proliferation and induction of senescence

Molecule: CC(C)(C)c1nc(-c2cccc(NS(=O)(=O)c3c(F)cccc3F)c2F)c(-c2ccnc(N)n2)s1 [dabrafenib]
median progression-free survival [6]: 6 months

Molecule: COC(=O)C[C@H](NC(=O)[C@H](C)NC(=O)[C@@H](NC(=O)OCc1ccccc1)C(C)C)C(=O)CF [pan-caspase inhibitor, Z-VAD-FMK] (Cbz-Val-Ala-Asp(OMe)-CH2F)
effect of pan-caspase inhibitor on cytotoxic response to p53 activation (SK-Mel5 cells): did not interfere

median (−)-Nutlin-3 AUC0–24hr, plasma ([8]; plasma): 292.7 µg·h/mL
median (−)-Nutlin-3 AUC0–24hr, tumor tissue ([8]; tumor tissue): 455.6 µg·h/mL
Molecule: (−)-Nutlin-3
viability of cells with p53 knockout (cells with p53 knockout): did not affect viability
cells showing strong p53 induction in vitro (p53 [3]; in vitro, Fig. S2B): 100%
accumulation of p53 and its transcriptional targets (p53 [3]): induced accumulation of p53 and its transcriptional targets p21, PUMA, BAX and MDM2
mitochondrial membrane potential (JC-1) (SK-Mel5 cells; (−)-Nutlin-3 10µM, MLN8237 1µM, 5 days): decrease in mitochondrial membrane potential
cleavage of caspase 3 (SK-Mel5 cells; Fig. S2C): not detected
Apoptosis Inducing Factor (AIF) activation and translocation (SK-Mel5 cells; SK-Mel5, IF staining): induced activation, mitochondrial release and nuclear translocation
apoptosis (Annexin V-FITC and PI staining) (SK-Mel5 cells; p53^WT melanoma cells, 10µM, 5 days): induced apoptosis
level and activity of p53 (p53 [7]): unaffected
p53 levels in tumors (B16F0 tumors [5]; IF staining, Fig. 4D): not strongly induced
cytotoxicity in senescent and non-senescent cells (SK-Mel5 melanoma cells; SK-Mel5, senescent (1 µM MLN8237 pre-treated) and non-senescent (vehicle pre-treated) cells, Fig. 1A, B): dose-dependent cytotoxicity
viability of melanoma cells under continuous exposure (SK-Mel5 melanoma cells): killed p53^WT melanoma cells
p53 induction/activation in tumors (Western blot) (SK-Mel5 xenografts; MLN8237 30mg/kg daily): modest
tumor cells showing induction of apoptosis marker AIF (SK-Mel5 xenografts; Fig. 3C): no more than 15%
tumor cells with elevated/strong p53 staining (SK-Mel5 xenografts; Fig. S3, untreated control tumors 3–6%): 11%
